This passage reports IC50 results from patent publication US10745382B2 (BRISTOL-MYERS SQUIBB COMPANY, priority 2015, dated 2020).

In the assay the target is T1, PD-1/PD-L1 (Homo sapiens, UniProt Q9NZQ7).
T1 construct: made in house; host or cells: HEK293T
Put plainly: PD-1/PD-L1 Homogenous Time-Resolved Fluorescence (HTRF) binding assay. Particulars: PD-L1-His 10 nM, PD-1-Ig 20 nM, read-out: Range or IC50. Put shortly:
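Read-out is time-resolved FRET between europium cryptate-labelled anti-Ig (1 nM final) and APC-labelled anti-His (20 nM final), both dispensed onto the binding mix. Assay buffer: dPBS containing 0.1% bovine serum albumin and 0.05% Tween-20.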

Each structure is given as a SMILES string. Like-named read-outs stand apart in the source and are kept apart here.

T1 sequence (Q9NZQ7 with tags, fused parts or gaps): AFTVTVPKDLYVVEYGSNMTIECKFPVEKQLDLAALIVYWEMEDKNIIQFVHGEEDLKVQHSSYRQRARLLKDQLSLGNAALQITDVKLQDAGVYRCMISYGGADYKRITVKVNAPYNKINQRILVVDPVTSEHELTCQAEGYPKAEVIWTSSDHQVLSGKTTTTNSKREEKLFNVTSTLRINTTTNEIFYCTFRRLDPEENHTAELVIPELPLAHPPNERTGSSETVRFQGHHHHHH

On to `Cc1c(COc2cc(OCc3cncc(C#N)c3)c(CNC(C)(C)C)cc2Cl)cccc1-c1cccc(OCCCN2CC[C@@H](O)C2)c1C` [Example 2326, (R)-5-((2-((tert-butylamino)methyl)-4-chloro-5-((3′-(3-(3-hydroxypyrrolidin-1-yl)propoxy)-2,2′-dimethyl-[1,1′-biphenyl]-3-yl)methoxy)phenoxy)methyl)nicotinonitrile], for which, where the note is “value given as range class”, the IC50 fell in the range of 0.21 to 10 nM.

Take `Cc1c(COc2cc(OCc3cncc(C#N)c3)c(CN[C@@](C)(CO)C(=O)O)cc2Cl)cccc1-c1cccc(OCCCN2CC(=O)NC(=O)C2)c1C` [Example 2327, (S)-2-((5-chloro-2-((5-cyanopyridin-3-yl)methoxy)-4-((3′-(3-(3,5-dioxopiperazin-1-yl)propoxy)-2,2′-dimethyl-[1,1′-biphenyl]-3-yl)methoxy)benzyl)amino)-3-hydroxy-2-methylpropanoic Acid]: the IC50 (value given as range class) is 0.21 to 10 nM.

Consider `Cc1c(COc2cc(OCc3cncc(C#N)c3)c(CN[C@@](C)(CO)C(=O)O)cc2Cl)cccc1-c1cccc(OCCCN2CCN(C)C(=O)C2)c1C` [Example 2328, (S)-2-((5-chloro-2-((5-cyanopyridin-3-yl)methoxy)-4-((2,2′-dimethyl-3′-(3-(4-methyl-3-oxopiperazin-1-yl)propoxy)-[1,1′-biphenyl]-3-yl)methoxy)benzyl)amino)-3-hydroxy-2-methylpropanoic Acid], for which the IC50 (value given as range class) was in the range of 0.21 to 10 nM.

Consider `Cc1c(COc2cc(OCc3cncc(C#N)c3)c(CN3CC(=O)NC(=O)C3)cc2Cl)cccc1-c1cccc(OCCCN2CC[C@@H](O)C2)c1C` [Example 2329, (R)-5-((4-chloro-2-((3,5-dioxopiperazin-1-yl)methyl)-5-((3′-(3-(3-hydroxypyrrolidin-1-yl)propoxy)-2,2′-dimethyl-[1,1′-biphenyl]-3-yl)methoxy)phenoxy)methyl)nicotinonitrile], for which the IC50 (value given as range class) fell in the range of 0.21 to 10 nM.

As to `Cc1c(COc2cc(OCc3cncc(C#N)c3)c(CN3CCN(C)C(=O)C3)cc2Cl)cccc1-c1cccc(OCCCN2CC[C@@H](O)C2)c1C` [Example 2330, (R)-5-((4-chloro-5-((3′-(3-(3-hydroxypyrrolidin-1-yl)propoxy)-2,2′-dimethyl-[1,1′-biphenyl]-3-yl)methoxy)-2-((4-methyl-3-oxopiperazin-1-yl)methyl)phenoxy)methyl)nicotinonitrile], the IC50 (value given as range class) was in the range of 0.21 to 10 nM.

Regarding `Cc1c(COc2cc(OCc3cncc(C#N)c3)c(CN3CCNC(=O)C3)cc2Cl)cccc1-c1cccc(OCCCN2CC[C@@H](O)C2)c1C` [Example 2331, (R)-5-((4-chloro-5-((3′-(3-(3-hydroxypyrrolidin-1-yl)propoxy)-2,2′-dimethyl-[1,1′-biphenyl]-3-yl)methoxy)-2-((3-oxopiperazin-1-yl)methyl)phenoxy)methyl)nicotinonitrile], under “value given as range class”, the IC50 was in the range of 0.21 to 10 nM.

On to `Cc1c(COc2cc(OCc3cncc(C#N)c3)c(CN3CCCC[C@H]3C(=O)O)cc2Cl)cccc1-c1cccc(OCCCN(C)C[C@H](O)CO)c1C` [Example 2332, (S)-1-(5-chloro-2-((5-cyanopyridin-3-yl)methoxy)-4-((3′-(3-(((S)-2,3-dihydroxypropyl)(methyl)amino)propoxy)-2,2′-dimethyl-[1,1′-biphenyl]-3-yl)methoxy)benzyl)piperidine-2-carboxylic Acid], for which, under “value given as range class”, the IC50 is 0.21 to 10 nM.

As for `Cc1c(COc2cc(OCc3cncc(C#N)c3)c(CN3CCCC[C@H]3C(=O)O)cc2Cl)cccc1-c1cccc(OCCCNC[C@H](O)CO)c1C` [Example 2333, (S)-1-(5-chloro-2-((5-cyanopyridin-3-yl)methoxy)-4-((3′-(3-(((S)-2,3-dihydroxypropyl)amino)propoxy)-2,2′-dimethyl-[1,1′-biphenyl]-3-yl)methoxy)benzyl)piperidine-2-carboxylic Acid], the IC50 (numeric IC50) is 0.9 nM.

By IC50 is commonly meant the concentration that gives 50% inhibition.
